The record followed here is PubChem BioAssay AID540269 (Sanford-Burnham Center for Chemical Genomics, 2011).

The IC50 is the midpoint of a concentration-inhibition curve.

Activity calls are given as the source filed them. No rule for the calls is given here.

In the assay the target is glucose-6-phosphate dehydrogenase-6-phosphogluconolactonase (Plasmodium falciparum 3D7). Put plainly: inhibition of P. falciparum G6PD activity – biochemical, kinetic NADPH detection, orthogonal assay, dose response (AID 540269). The conditions noted are these: purified PfG6PD-6PGL.
As to `CN(C)c1ccc(/C=C/c2ccc3c4ccccc4ccc3[n+]2-c2ccccc2)cc1`, the IC50 was 44.3 µM.
Next, `COc1ccc(CCn2c(NN=C3CCCCC3)nc3c2c(=O)[nH]c(=O)n3C)cc1`: > 80 µM (inactive).
For the compound `CN1CCc2cccc3c2[C@@H]1Cc1ccc(O)c(O)c1-3`, the IC50 is > 80 µM (inactive).
Then `CCOc1ccc(Cl)cc1/C=N/NC(N)=O`, with 48.7 µM; and `COc1cccc(C=Nc2cc(C(C)C)c(O)cc2C)c1O`, with > 80 µM (inactive).
As to `O=c1c2cc(F)ccc2sn1-c1ccccc1Cl`, the IC50 is 12.7 µM.
With `CCOC(=O)c1cnc2ccc(C)cc2c1Sc1ccccc1C(=O)OC`, the IC50 is > 80 µM (inactive).
Then `CC1CCc2[nH]c3ccc(C(=O)N(C)CC(=O)Nc4ccccc4C(F)(F)F)cc3c2C1` (configuration not stated), with > 80 µM (inactive); and `CCc1nnc(NC(=O)c2ccc(Cl)nc2)s1`, with > 80 µM (inactive).
Next, `CC1=CC(C)(C)Nc2ccc(OC(=O)CN3C(=O)c4cccc5cccc(c45)C3=O)cc21`: 76.9 µM; `CN1CCc2cc(O)cc3c2[C@H]1Cc1ccc(O)c(O)c1-3`: > 80 µM (inactive); `CS(=O)(=O)c1ccc(N)c(SSc2cc(S(C)(=O)=O)ccc2N)c1`: 15.2 µM.
In the case of `CN(C)c1ccc(C=c2c3cc(O)ccc3n3c2cc(-c2ccccc2)[n+]3C)cc1`, the IC50 is > 80 µM (inactive).
For `COc1cc(/C=N/n2cc(-c3ccccc3)[nH]c2=S)cc(OC)c1O`, the IC50 was 11.2 µM.
As to `N#CC1=C(N)Oc2c(O)cc3ccccc3c2C1c1ccsc1` (configuration not stated), the IC50 is 55.6 µM.
With `COc1cc(N=Cc2c(CO)cnc(C)c2O)cc(OC)c1OC`, the concentration for half-maximal inhibition (IC50) is 30.5 µM.
Next, `CN(C)c1ncc(C2=C(Cl)C(=O)C(N3CCCC3)=C(Cl)C2=O)s1`: 35.6 µM; `CC(SCC(=O)Nc1ccccc1)c1nc2ccccc2c(=O)[nH]1` (configuration not stated): > 80 µM (inactive).
Next, `CCn1c(=O)n(CC)c2cc(N3CCCC3)c(NC(=O)c3cccc(C)c3)cc21`: > 80 µM (inactive).
Then `CCOc1cc(CNc2ccc(N3CCCC3)cc2)cc(Cl)c1OC`, with > 80 µM (inactive); and `COc1cccc(-c2c(C(=O)N/N=C/c3ccc(C)o3)nnn2-c2nonc2N)c1`, with 12.7 µM; and `CCOC(=O)C1CCCN(C(=O)Cn2sc3nc(C)cc(C)c3c2=O)C1` (configuration not stated), with 50.7 µM.
Take `COc1cc(-c2cc(=O)c3c(O)c(OC)c(OC)c(O)c3o2)ccc1O`: the IC50 is 40.3 µM.
Then `Oc1ccc(C2C[C@H]3CC[C@@H]2C3)cc1O` (some centres not stated), with 48.6 µM; and `Cc1nc2c(o1)C(=O)c1ccccc1C2=Nc1ccccc1`, with > 80 µM (inactive); and `COc1ccc(/C=C/c2nc3ccccc3n2C)cc1`, with 17.7 µM.
Next, `CC(=O)Nc1ccc(S(=O)(=O)NNc2cccc(C)c2)cc1`: > 80 µM (inactive); `Cc1cc(O)c(C(C)C)cc1N=Cc1ccccc1[N+](=O)[O-]`: > 80 µM (inactive).
Next, `Cn1c(=O)[nH]c(=O)c2c1nc([N+](=O)[O-])n2Cc1ccccc1`: > 80 µM (inactive); `Nc1c(O)cccc1C(=O)O`: 40.9 µM; `Cc1cc(C)c2c(=O)n(CC(=O)NC3CCCC3)sc2n1`: > 80 µM (inactive).
For the compound `O=C(COC(=O)c1ccc2c(c1[N+](=O)[O-])C(=O)c1ccccc1C2=O)NC1CC1`, the IC50 is > 80 µM (inactive).
In the case of `CN(C)c1cccc2c1c(NC(=O)c1ccc(F)cc1)nn2C`, the IC50 was > 80 µM (inactive).
Next, `CNS(=O)(=O)c1ccc(-c2ccc(C=C3C(=O)NC(=O)NC3=O)o2)cc1`: 33.6 µM; `O=c1c2ccccc2sn1-c1ccccc1F`: 15.5 µM.
Next, `CCn1c(SCC(=O)Nc2ccccc2OC)nnc1-c1cnccn1`: > 80 µM (inactive).
Next, `COc1cc(N)c2ncccc2c1Cl`: 45.8 µM.
Consider `Cc1ccc(S(=O)c2ccc([N+](=O)[O-])c3nonc23)cc1` (configuration not stated), for which the IC50 was > 80 µM (inactive).
Regarding `COC(=O)C1=C(C(=O)OC)SC2(S1)C(C(=O)OC)=C(C(=O)OC)Sc1c2ssc1=O`, the IC50 was > 80 µM (inactive).
Then `C=CCN1C=C2C(=O)C(C)(OC(=O)CCC(=O)OC)C(=O)C(Br)=C2C=C1c1ccc(OC)cc1` (configuration not stated), with > 80 µM (inactive); and `Nc1c(C(=O)Nc2ccc(F)cc2)sc(=S)n1-c1ccccc1F`, with > 80 µM (inactive); and `COc1cc(N)c2ncsc2c1`, with > 80 µM (inactive).
`CCN(CC)c1ccc(C(=C2C=CC(=[N+](CC)CC)C=C2)c2ccc(N(CC)CC)cc2)cc1`: the IC50 was 16.1 µM.
For the compound `O=c1[nH]c2ccc(NCc3ccccc3OCc3ccc(Cl)cc3)cc2[nH]1`, the IC50 was > 80 µM (inactive).
Next, `CCN1CCN(c2nc(C)nc3c2sc(=S)n3C)CC1`: > 80 µM (inactive); `Cc1ccc(S(=O)(=O)C=CS(=O)(=O)c2ccc(C)cc2)cc1`: 41.2 µM; `COc1ccc(N2CSC3=C(C#N)C(c4cc(OC)c(OC)cc4OC)CC(=O)N3C2)c(OC)c1` (configuration not stated): > 80 µM (inactive).
Turning to `CN(C)C=Nc1ccc2nc3c(cc2c1)[nH]c1ccccc13`, the IC50 is > 80 µM (inactive).
Next, `O=C(Cn1sc2ccccc2c1=O)Nc1ccc(Br)cc1`: 17 µM.
For the compound `COC(=O)CCC(=O)OC1(C)C(=O)C2=CN(c3ccccc3)C(c3ccc(OC)cc3)=CC2=C(Br)C1=O` (configuration not stated), the IC50 is > 80 µM (inactive).
Next, `COc1ccc(C(=O)c2c(C(F)(F)F)oc3c2C(=O)c2ccccc2C3=O)cc1OC`: > 80 µM (inactive); `O=C1C=CC(=O)N1CCNc1ncc(C(F)(F)F)cc1Cl`: 34.8 µM; `O=C(O)CSc1cc(NS(=O)(=O)c2ccc(Cl)cc2)c2ccccc2c1O`: 46.3 µM.
As to `O=[N+]([O-])c1ccc(Sc2cccc3cccnc23)c2cccnc12`, the IC50 is > 80 µM (inactive).
On to `O=c1c2ccccc2sn1-c1ccccc1`, for which the IC50 was 9.73 µM.
In the case of `Cc1cccc(C(=O)Nc2nnc(S(=O)(=O)N3CCOCC3)s2)c1`, the half-inhibitory concentration (IC50) is 59.4 µM.
Next, `O=c1c2ccccc2sn1-c1ccc(S(=O)(=O)N2CCCC2)cc1`: 28.4 µM; `O=C(CNC(=O)c1ccco1)OCC(=O)c1ccc([N+](=O)[O-])cc1`: 50.9 µM.
Take `O=C1Nc2cc(C(=O)NCCCN3CCCC3)ccc2S/C1=C/c1cccc(Cl)c1`: the IC50 was 34.2 µM.
Consider `Cc1ccc(/C=C/C(=O)NCC2COc3ccccc3O2)o1` (configuration not stated), for which the IC50 was > 80 µM (inactive).
Next, `COc1ccc(C2(CNC(=O)c3ccc(OC)c([N+](=O)[O-])c3)CCCCC2)cc1OC`: > 80 µM (inactive).
Next, `Clc1ccc2nc(-c3ccc(Br)s3)cn2c1`: > 80 µM (inactive); `O=c1[nH]nc(CNc2ccc(O)cc2)c2ccccc12`: > 80 µM (inactive).
Next, `Cc1cc(C)c[n+](C2=C([O-])c3ccccc3C(=O)/C2=N\S(=O)(=O)c2cccs2)c1`: > 80 µM (inactive); `O=C1C=CC(=O)N1CCCCCCCCCCN1C(=O)C=CC1=O`: > 80 µM (inactive); `O=C1C=CC2=C3c4cc(O)c(O)cc4CC3(O)COC2=C1O` (configuration not stated): 37.8 µM.
`COc1cccc(C2(c3cccc(OC)c3)CC2C(=O)Nc2ccc(F)cc2)c1` (configuration not stated): the IC50 is > 80 µM (inactive).
